The record followed here is publication PMC6156138, “Combination of a Latency-Reversing Agent With a Smac Mimetic Minimizes Secondary HIV-1 Infection in vitro” (Frontiers in Microbiology, 2018).

What all share (assay type): cell-based
Data set [1] can be described thus: Cytotoxicity assay (Cytotoxicity LDH Assay Kit). Particulars: human. Here is the method:
(§1) To determine the cytotoxicity induced by LRAs and its related compounds, cells (5 × 10^5 cells/mL) were cultured in the presence or absence of LRA. After 24 h, cytotoxicity assays were performed using a Cytotoxicity LDH Assay Kit (Dojindo, Kumamoto, Japan) according to the manufacturer’s instructions. The number of living cells with the drug was measured and compared with those without the drug, and data are shown as percentage (%) of control.

Data set [2] concerns latent HIV-1-infected U1 cells. Briefly: HIV reactivation from latent cells: supernatant p24 antigen. Particulars: day 2, single drug (Figure 1B). As to the method: The reactivation of HIV-1 from latently infected cells was determined by the measurement of supernatant p24 antigen and intracellular HIV-1 RNA levels. ACH-2 cells or U1 cells (5 × 10^5 cells/mL) were placed in 96-well plates, and then the cells were incubated with different concentrations of drugs for 24 h to extract RNA and for 48 h to collect the supernatant. The increase in supernatant p24 antigen levels was measured using […] G1200 (Fujirebio, Tokyo, Japan). The total RNA was extracted using an RNeasy Mini Kit (Qiagen, Hilden, Germany), following the manufacturer’s protocols. The cDNA was synthesized using PrimeScript RT Master Mix (Takara Bio, Shiga, Japan), and quantitative real-time PCR analyses for the intracellular HIV-1 RNA were carried out with PowerUp^TM SYBR Green Master Mix (Applied Biosystems, Foster City, CA, United States). The oligonucleotide primers used were as follows: 5′-[…]-3′ (forward) and 5′-[…]-3′ (reverse) for HIV-RNA detection; 5′-[…]-3′ (forward) and 5′-[…]-3′ (reverse) for β-actin. The HIV-RNA expressions were normalized with that of β-actin, which was indicated as the relative quantity, and the increase in HIV-1 RNA levels in the presence of a drug was compared with that without a drug.
FIGURE 1 (A,B) The increase in viral production from ACH-2 cells (A) and U1 cells (B) was examined by supernatant p24 antigen levels on day 2. (C,D) Changes in the intracellular HIV-1 mRNA levels due to treatment with these drugs in ACH-2 cells (C) and U1 cells (D) after 24 h of incubation.

In a further data set the test system is HIV-1 NL4-3. Briefly: Antiviral assay, HIV-1 NL4-3 in MT-4 cells. Particulars: for antiviral effect when combined with EFdA: HIV-1 NL4-3 in MT-4 cells; for replication of HIV-1 NL4-3 (supernatant p24): MT-4 cells, cultured for 12 days, single drug. As to the method: as §1, with “Antiviral assays using wild type HIV-1 (HIV-1 NL4-3) cells and MT-4 cells were conducted as previously described ([Maeda et al., 2014]; [Takamatsu et al., 2015]). To” for “To”
Supplementary file Data_Sheet_1.PDF: FIGURE S1 The combined effect of an RT inhibitor (EFdA/MK-8591) ([Nakata et al., 2007]; [Kawamoto et al., 2008]; [Maeda et al., 2014]) and PKC activator (PEP005) on the replication of HIV-1 NL4-3 in MT-4 cells. MT-4 cells were infected with HIV-1 NL4-3 in the presence or absence of drug(s), cultured for 12 days, and the supernatant p24 levels were measured. Click here for additional data file.

The test system of data set [3] is ACH-2 cells. Briefly: Living cell numbers of ACH-2 cells in the presence of drug(s). Particulars: birinapant 50 nM; for cell toxicity / replication of ACH-2 cells: PEP005 5 nM (Figure 2C). As to the method: FIGURE 2 (A) Effect of birinapant when combined with TNF-α. The supernatant p24 levels with birinapant (1∼100 nM) in ACH-2 cell culture on day 2 are shown in white bars, and p24 values with birinapant when combined with TNF-α (10 ng/ml) are shown in black bars. (B) HIV-1 production from ACH-2 cells when reactivated by PEP005 (0.05∼50 nM) for 24 h. (C) Changes in the living cell numbers in the presence of drug(s) on days 1, 3, and 5.

In data set [4] the test system is ACH-2 cells. As to the kind of experiment: FACS analysis of active caspase-3 expression. The conditions noted are these: for percentage of active caspase-3 cells: ACH-2 cells, 24 h. As to the method:
Intracellular HIV-1 p24 levels and active form of caspase-3 expression were determined as previously described ([Hattori et al., 2009]; [Duro et al., 2010]; [Matsuda et al., 2015]). In brief, ACH-2 cells or U1 cells (2.5 × 10^5 cells/mL) were fixed with 1% paraformaldehyde/phosphate buffered saline (PBS) for 20 min and were permeabilized with Flow Cytometry Perm Buffer (TONBO biosciences, San Diego, CA, United States). After incubation on ice for 5 min, the cells were stained with anti-HIV-1 p24 (24-4)-FITC mAb (Santa Cruz Biotechnology, Dallas, TX, United States) and/or with Alexa Fluor 647-conjugated anti-active caspase-3 mAb (C92-605) (BD Pharmingen, San Diego, CA, United States) for 30 min on ice. Cells were then analyzed on a BD FACSVerse flow cytometer (BD Biosciences, Franklin Lakes, NJ, United States). The corrected data were analyzed with FlowJo software (Tree Star, San Carlos, CA, United States).
FIGURE 3 (A,B) ACH-2 (A) and U1 cells (B) were treated with birinapant (50 nM), PEP005 (5 nM), birinapant plus PEP005, TNF-α (10 ng/ml), and intracellular expression of caspase-3 was examined after 24 h of incubation. The percentage of active caspase-3 cells was determined by comparison with unstimulated cells. (C) ACH-2 cells after 24 h of PEP005 (0∼50 nM) treatment with or without birinapant (50 nM) were separately analyzed in p24^+ and p24^- populations for caspase-3 expression.
FIGURE 4 (A) ACH-2 cells were exposed to birinapant (50 nM), PEP005 (5 nM), birinapant plus PEP005, TNF-α (10 ng/ml), or birinapant plus TNF-α treatment and were cultured for 5 days, and data (FACS analysis) were collected at days 1, 3, and 5. (B) Expression of active caspase-3 in p24^+/^- populations is shown. (C) Changes in the supernatant p24 antigen levels in the presence of drug(s) on days 1, 3, and 5. […]

Setting [5] is: A3.01 cells, read-out: CC50 ± SD against A3.01.
Setting [6] is: ACH-2 cells, read-out: CC50 ± SD against ACH-2.
Where [7] appears, read: HL-60 cells, read-out: CC50 ± SD against HL-60.
[8] abbreviates: J1.1 cells, read-out: CC50 ± SD against J1.1.
The mark [9] stands for this setting: Jurkat cells, read-out: CC50 ± SD against Jurkat.
The mark [10] stands for this setting: OM10.1 cells, read-out: CC50 ± SD against OM10.1.
[11] abbreviates: U1 cells, read-out: CC50 ± SD against U1.
[12] abbreviates: U937 cells, read-out: CC50 ± SD against U937.
[13] abbreviates: birinapant 50 nM, PEP005 5 nM, TNF-α 10 ng/ml.

Where two headings read alike, the source gives them in different places.

The CC50 is the concentration that lowers cell viability or growth by half. `C/C=C(/C)C(=O)O[C@H]1C(C)=C[C@]23C(=O)[C@@H](C=C(CO)[C@@H](O)[C@]12O)[C@H]1[C@@H](C[C@H]3C)C1(C)C` [PEP005, ingenol-3-angelate]: the CC50 at 24 h is 47 ± 9 µM in data set [1] (setting [5]); 19 ± 0.4 µM in data set [1] (setting [6]); greater than 100 µM in data set [1] (setting [7]); 44 ± 2 µM in data set [1] (setting [8]); 16 ± 3 µM in data set [1] (setting [9]); 84 ± 6 µM in data set [1] (setting [10]). The cytotoxic concentration (CC50) at 24 h in data set [1] (setting [11]) and in data set [1] (setting [12]) was greater than 100 µM each time. Moreover, in data set [2], the “viral production (supernatant p24 antigen levels)” value is “increased viral production”. In addition, in the data set with HIV-1 NL4-3, the “antiviral effect when combined with EFdA” value is on record as “no additive/synergistic antiviral effect”. Also, the “replication of HIV-1 NL4-3 (supernatant p24)” value in the data set on HIV-1 NL4-3 is reported as “little to no effect on viral replication”. Further, the “cell toxicity / replication of ACH-2 cells” value with ACH-2 cells [3] is “strongly inhibited the replication of ACH-2 cells”. For the same compound, the “number of living cells” value in the data set with ACH-2 cells [3] (day 5, PEP005 5 nM) stood at 370000 mL⁻¹. For the same compound, the “Active caspase-3” value with ACH-2 cells [4] (ACH-2, 24 h, p24 (+) cells, Birinapant (-), PEP005 50nM) is 13.0%; with ACH-2 cells [4] (ACH-2, 24 h, p24 (-) cells, Birinapant (-), PEP005 50nM), 44.7%; in the data set on ACH-2 cells [4] (ACH-2, Day 5, p24 (+) cells, birinapant 50 nM, PEP005 5 nM, TNF-α 10 ng/ml), roughly 20.7%. In the data set with ACH-2 cells [4] (setting [13]), the “percentage of active caspase-3 cells” value came out at 9.98%.

As to `CC[C@H](NC(=O)[C@H](C)NC)C(=O)N1C[C@@H](O)C[C@H]1Cc1c(-c2[nH]c3cc(F)ccc3c2C[C@@H]2C[C@H](O)CN2C(=O)[C@H](CC)NC(=O)[C@H](C)NC)[nH]c2cc(F)ccc12` [Birinapant], the CC50 at 24 h in data set [1] (setting [5]) was 0.2 ± 0.08 µM; in data set [1] (setting [6]), greater than 100 µM; in data set [1] (setting [7]), greater than 100 µM; in data set [1] (setting [8]), 48 ± 0.9 µM; in data set [1] (setting [9]), 13 ± 0.1 µM; in data set [1] (setting [10]), 53 ± 8 µM. Also, the CC50 at 24 h in data set [1] (setting [11]) and in data set [1] (setting [12]) was greater than 100 µM in each case. The “viral production (supernatant p24 antigen levels)” value in data set [2] is reported as “only had a minor effect on HIV-1 reactivation”. The “antiviral effect when combined with EFdA” value in the data set on HIV-1 NL4-3 is “no additive/synergistic antiviral effect”. In the data set on HIV-1 NL4-3, the “replication of HIV-1 NL4-3 (supernatant p24)” value was “little to no effect on viral replication”. For the same compound, the “cell toxicity / replication of ACH-2 cells” value in the data set on ACH-2 cells [3] is recorded as “failed to show cell toxicity”. Also, the “percentage of active caspase-3 cells” value in the data set with ACH-2 cells [4] (setting [13]) is 2.96%.
